Columns and labels:
[1] = target: T1, human Cot catalytic domain (30-397 amino acids) (Homo sapiens, UniProt P41279); test: High Throughput Cot Biochemical Assay (KinEASE TR-FRET); conditions: Cot KinEASE TR-FRET, 400 μM ATP; read-out: IC50 HTRF
T1 construct: Purified recombinant human Cot catalytic domain (30-397 amino acids) was purchased from Cama Biosciences; purchased Cama Biosciences (so in the source)
Summary of the method: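 TR-FRET (KinEASE) read-out: Eu-labelled phospho-specific antibody binds XL665-tagged STK3 peptide (1 μM) phosphorylated by 5 nM human Cot kinase domain (residues 30-397). Reaction at 400 μM ATP, pH 7.0 MOPS buffer with 10 mM MgOAc, 1 mM DTT and 0.1% DMSO.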

[2] = test system: TNFα production in LPS-stimulated human monocytes; test: Cot Monocyte TNFα Cell Based Assay; conditions: Homo sapiens, Monocyte, LPS-stimulated human monocytes, TNFα TR-FRET; read-out: EC50 TNF
Summary of the method: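 TNFα release quantified by two-antibody TR-FRET, normalised to unstimulated (0%) and LPS-stimulated (100%) wells. Cells got a 1 h compound exposure at 37° C in 0.5% DMSO before 4 h challenge with 50 pg/ml LPS, at 5,000 cells/well.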

T1 sequence (P41279 30-397): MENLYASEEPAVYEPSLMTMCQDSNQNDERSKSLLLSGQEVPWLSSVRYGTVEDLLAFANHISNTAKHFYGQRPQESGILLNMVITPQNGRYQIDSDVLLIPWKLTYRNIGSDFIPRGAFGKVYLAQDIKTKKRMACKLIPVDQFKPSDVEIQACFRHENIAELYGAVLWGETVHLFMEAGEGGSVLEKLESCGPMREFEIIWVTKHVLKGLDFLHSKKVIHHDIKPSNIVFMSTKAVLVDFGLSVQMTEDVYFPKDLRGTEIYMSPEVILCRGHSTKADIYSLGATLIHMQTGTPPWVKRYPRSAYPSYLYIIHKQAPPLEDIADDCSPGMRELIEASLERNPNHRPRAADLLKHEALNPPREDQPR

Row | SMILES | IC50 [1] [nM] | EC50 [2] [nM]
1 | CC(C)(C)CNc1c(C#N)cnc2c(C#N)cc(N[C@H](c3cn(C4(c5ccncc5)CC4)nn3)c3ccccc3Cl)cc12 [Example 1011, (S)-6-(((2-chlorophenyl)(1-(1-(pyridin-4-yl)cyclopropyl)-1H-1,2,3-triazol-4-yl)methyl)amino)-4-(neopentylamino) quinoline-3,8-dicarbonitrile] | 3 | 22
2 | Cc1c(C#N)cccc1[C@H](Nc1cc(Cl)c2ncc(C#N)c(NCC(C)(C)C)c2c1)c1cn(C2(C(F)F)CC2)nn1 [Example 1012, (S)-8-chloro-6-(((3-cyano-2-methylphenyl)(1-(1-(difluoromethyl)cyclopropyl)-1H-1,2,3-triazol-4-yl)methyl)amino)-4-(neopentylamino)quinoline-3-carbonitrile] | 3 | 36
3 | Cc1c(C#N)cccc1[C@H](Nc1cc(C#N)c2ncc(C#N)c(NCC(C)(C)C)c2c1)c1cn(C2(C(F)F)CC2)nn1 [Example 1013, (S)-6-(((3-cyano-2-methylphenyl)(1-(1-(difluoromethyl)cyclopropyl)-1H-1,2,3-triazol-4-yl)methyl)amino)-4-(neopentylamino)quinoline-3,8-dicarbonitrile] | 2 | 23
4 | CC(C)(C)CNc1c(C#N)cnc2c(C#N)cc(N[C@H](c3cn(C4(C(N)=O)CCC4)nn3)c3ccccc3Cl)cc12 [Example 1014, (S)-1-(4-((2-chlorophenyl) ((3,8-dicyano-4-(neopentylamino)quinolin-6-yl)amino)methyl)-1H-1,2,3-triazol-1-yl)cyclobutane-1-carboxamide] | 3 | 106
5 | CC(C)(C)CNc1c(C#N)cnc2c(F)cc(N[C@H](c3cn(C4CC4)nn3)c3ccccc3Cl)cc12 [Example 1015, (S)-6-(((2-chlorophenyl)(1-cyclopropyl-1H-1,2,3-triazol-4-yl)methyl)amino)-8-fluoro-4-(neopentylamino)quinoline-3-carbonitrile] | 14 | 462
6 | [2H][C@](Nc1cc(Cl)c2ncc(C#N)c(NCC(C)(C)c3ccccn3)c2c1)(c1ccc(F)cc1)c1cn(C2CC2)nn1 [Example 1016, (S)-8-chloro-6-(((1-cyclopropyl-1H-1,2,3-triazol-4-yl)(4-fluorophenyl)methyl-d)amino)-4-((2-methyl-2-(pyridin-2-yl)propyl)amino)quinoline-3-carbonitrile] | 28 | ≥ 1000
7 | CC(C)(C)CNc1c(C#N)cnc2c(F)cc(N[C@H](c3cn(C4(C(F)(F)F)CC4)nn3)c3ccccc3Cl)cc12 [Example 1017, (S)-6-(((2-chlorophenyl)(1-(1-(trifluoromethyl)cyclopropyl)-1H-1,2,3-triazol-4-yl)methyl)amino)-8-fluoro-4-(neopentylamino)quinoline-3-carbonitrile] | 85 | ≥ 1000
8 | [2H][C@](Nc1cc(C#N)c2ncc(C#N)c(NC3CCCC3(C)C)c2c1)(c1ccc(F)cc1)c1cn(C2(C(F)(F)F)CC2)nn1 (stereo partly drawn) [Example 1018, 4-((2,2-dimethylcyclopentyl)amino)-6-(((S)-(4-fluorophenyl)(1-(1-(trifluoromethyl)cyclopropyl)-1H-1,2,3-triazol-4-yl)methyl-d)amino)quinoline-3,8-dicarbonitrile] | 22 | 326
9 | CC(C)(C)CNc1c(C#N)cnc2c(C#N)cc(N[C@H](c3cn(C4(C(N)=O)CCCC4)nn3)c3ccccc3Cl)cc12 [Example 1020, (S)-1-(4-((2-chlorophenyl) ((3,8-dicyano-4-(neopentylamino)quinolin-6-yl)amino)methyl)-1H-1,2,3-triazol-1-yl)cyclopentane-1-carboxamide] | 6 | 161
10 | CC(C)(C)CNc1c(C#N)cnc2c(C#N)cc(N[C@H](c3cn(C(C)(C)C(N)=O)nn3)c3ccccc3Cl)cc12 [Example 1021, (S)-2-(4-((2-chlorophenyl) ((3,8-dicyano-4-(neopentylamino)quinolin-6-yl)amino)methyl)-1H-1,2,3-triazol-1-yl)-2-methylpropanamide] | 4 | 234
11 | CC(C)(C)CNc1c(C#N)cnc2c(C#N)cc(N[C@H](c3cn(C4(C(N)=O)CCOC4)nn3)c3ccccc3Cl)cc12 (stereo partly drawn) [Example 1022, 3-(4-((S)-(2-chlorophenyl) ((3,8-dicyano-4-(neopentylamino)quinolin-6-yl)amino)methyl)-1H-1,2,3-triazol-1-yl)tetrahydrofuran-3-carboxamide] | 7 | 503
12 | CC(C)(C)CNc1c(C#N)cnc2c(C#N)cc(N[C@H](c3cn(C4(C(N)=O)CCOCC4)nn3)c3ccccc3Cl)cc12 [Example 1023, (S)-4-(4-((2-chlorophenyl) ((3,8-dicyano-4-(neopentylamino)quinolin-6-yl)amino)methyl)-1H-1,2,3-triazol-1-yl)tetrahydro-2H-pyran-4-carboxamide] | 21 | ≥ 1000
13 | Cc1ccccc1[C@H](Nc1cc(C#N)c2ncc(C#N)c(NCC(C)(C)C)c2c1)c1cn(C2(C#N)CC2)nn1 [Example 1024, (S)-6-(((1-(1-cyanocyclopropyl)-1H-1,2,3-triazol-4-yl)(o-tolyl)methyl)amino)-4-(neopentylamino)quinoline-3,8-dicarbonitrile] | 5 | 54
14 | CC(C)(C)CNc1c(C#N)cnc2c(C#N)cc(N[C@H](c3cn(C4(C#N)CC4)nn3)c3ccccc3C(F)F)cc12 [Example 1025, (S)-6-(((1-(1-cyanocyclopropyl)-1H-1,2,3-triazol-4-yl)(2-(difluoromethyl)phenyl)methyl)amino)-4-(neopentylamino)quinoline-3,8-dicarbonitrile] | 10 | 131
15 | CC(C)(C)CNc1c(C#N)cnc2c(C#N)cc(N[C@H](c3cn(C4(C#N)CC4)nn3)c3ccccc3CO)cc12 [Example 1026, (S)-6-(((1-(1-cyanocyclopropyl)-1H-1,2,3-triazol-4-yl)(2-(hydroxymethyl)phenyl)methyl)amino)-4-(neopentylamino)quinoline-3,8-dicarbonitrile] | 7 | 371
16 | CC(C)(C)CNc1c(C#N)cnc2c(C#N)cc(N[C@H](c3cn(C4(C#N)CC4)nn3)c3cccc(C#N)c3Cl)cc12 [Example 1027, (S)-6-(((2-chloro-3-cyanophenyl)(1-(1-cyanocyclopropyl)-1H-1,2,3-triazol-4-yl)methyl)amino)-4-(neopentylamino)quinoline-3,8-dicarbonitrile] | 4 | 141
17 | [2H][C@](Nc1cc(Cl)c2ncc(C#N)c(N[C@H](CC)c3ccccc3)c2c1)(c1ccc(F)cc1)c1cn(C2(C(F)F)CC2)nn1 [Example 1028, 8-chloro-6-(((S)-(1-(1-(difluoromethyl)cyclopropyl)-1H-1,2,3-triazol-4-yl)(4-fluorophenyl)methyl-d)amino)-4-(((R)-1-phenylpropyl)amino)quinoline-3-carbonitrile] | 17 | 259
18 | [2H][C@@](Nc1cc(C#N)c2ncc(C#N)c(NCC(C)(C)C)c2c1)(c1cn(C(C)(C)C)nn1)c1ccccc1Cl [Example 1029, (S)-6-(((1-(tert-butyl)-1H-1,2,3-triazol-4-yl)(2-chlorophenyl)methyl-d)amino)-4-(neopentylamino)quinoline-3,8-dicarbonitrile] | 14 | 225

— patent US10316017B2, “COT modulators and methods of use thereof” (Gilead Sciences, Inc., priority 2015, dated 2019)
